In patent US10155749B2, “Substituted benzimidazolium compounds useful in the treatment of respiratory diseases” (Boehringer Ingelheim International GmbH, priority 2015, dated 2018):

Tests used:
[1] = target: T1, ENaC (Epithelial Sodium Channel) (Mus musculus, UniProt Q61180+Q9WU38+Q9WU39); experiment: Ussing Chamber assay (short circuit current, amiloride sensitive I_SC) in M-1 cells; type: cell-based; settings: Mouse kidney M-1 cells, apical application, 37° C.
T1 construct: Mouse kidney M-1 cells were cultivated in DMEM containing 5% FCS and 5 μM dexamethasone; endogenous in cells; host or cells: Mouse kidney M-1 cells
T1 sequence (Q61180 1-699): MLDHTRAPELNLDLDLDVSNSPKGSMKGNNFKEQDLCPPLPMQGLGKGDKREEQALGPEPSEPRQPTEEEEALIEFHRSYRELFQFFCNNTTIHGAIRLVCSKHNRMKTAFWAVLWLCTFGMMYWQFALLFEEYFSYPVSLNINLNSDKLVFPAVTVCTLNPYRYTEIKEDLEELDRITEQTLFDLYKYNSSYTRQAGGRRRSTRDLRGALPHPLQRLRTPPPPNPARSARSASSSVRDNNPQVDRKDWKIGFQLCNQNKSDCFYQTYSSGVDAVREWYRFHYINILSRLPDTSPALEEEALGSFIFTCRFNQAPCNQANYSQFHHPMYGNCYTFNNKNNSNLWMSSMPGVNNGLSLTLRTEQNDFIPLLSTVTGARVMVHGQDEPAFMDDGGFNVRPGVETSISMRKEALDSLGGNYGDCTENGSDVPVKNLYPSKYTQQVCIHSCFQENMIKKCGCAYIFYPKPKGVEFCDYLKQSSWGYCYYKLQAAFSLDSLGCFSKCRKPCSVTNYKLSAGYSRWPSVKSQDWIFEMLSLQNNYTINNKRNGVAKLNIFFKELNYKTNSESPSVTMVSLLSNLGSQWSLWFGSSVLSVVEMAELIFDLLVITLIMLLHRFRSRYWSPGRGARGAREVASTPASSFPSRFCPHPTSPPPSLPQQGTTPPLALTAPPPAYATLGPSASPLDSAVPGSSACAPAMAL
T1 sequence (Q9WU38 1-638): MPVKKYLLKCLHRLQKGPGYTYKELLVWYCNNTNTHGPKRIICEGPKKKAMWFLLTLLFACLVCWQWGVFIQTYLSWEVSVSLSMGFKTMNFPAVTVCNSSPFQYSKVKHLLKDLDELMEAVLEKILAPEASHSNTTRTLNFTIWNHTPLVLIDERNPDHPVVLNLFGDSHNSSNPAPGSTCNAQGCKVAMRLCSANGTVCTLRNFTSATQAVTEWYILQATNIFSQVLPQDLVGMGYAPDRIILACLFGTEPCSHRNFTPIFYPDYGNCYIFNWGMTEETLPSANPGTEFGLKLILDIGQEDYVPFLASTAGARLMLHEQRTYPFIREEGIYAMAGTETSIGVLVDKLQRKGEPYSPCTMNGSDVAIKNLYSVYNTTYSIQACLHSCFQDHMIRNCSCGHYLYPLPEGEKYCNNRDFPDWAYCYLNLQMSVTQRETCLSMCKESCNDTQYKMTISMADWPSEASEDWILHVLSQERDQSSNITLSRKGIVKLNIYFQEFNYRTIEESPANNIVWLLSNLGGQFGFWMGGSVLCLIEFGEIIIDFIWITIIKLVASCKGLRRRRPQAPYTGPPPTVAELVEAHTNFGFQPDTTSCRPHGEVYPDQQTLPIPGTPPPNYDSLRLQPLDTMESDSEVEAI
T1 sequence (Q9WU39 1-655): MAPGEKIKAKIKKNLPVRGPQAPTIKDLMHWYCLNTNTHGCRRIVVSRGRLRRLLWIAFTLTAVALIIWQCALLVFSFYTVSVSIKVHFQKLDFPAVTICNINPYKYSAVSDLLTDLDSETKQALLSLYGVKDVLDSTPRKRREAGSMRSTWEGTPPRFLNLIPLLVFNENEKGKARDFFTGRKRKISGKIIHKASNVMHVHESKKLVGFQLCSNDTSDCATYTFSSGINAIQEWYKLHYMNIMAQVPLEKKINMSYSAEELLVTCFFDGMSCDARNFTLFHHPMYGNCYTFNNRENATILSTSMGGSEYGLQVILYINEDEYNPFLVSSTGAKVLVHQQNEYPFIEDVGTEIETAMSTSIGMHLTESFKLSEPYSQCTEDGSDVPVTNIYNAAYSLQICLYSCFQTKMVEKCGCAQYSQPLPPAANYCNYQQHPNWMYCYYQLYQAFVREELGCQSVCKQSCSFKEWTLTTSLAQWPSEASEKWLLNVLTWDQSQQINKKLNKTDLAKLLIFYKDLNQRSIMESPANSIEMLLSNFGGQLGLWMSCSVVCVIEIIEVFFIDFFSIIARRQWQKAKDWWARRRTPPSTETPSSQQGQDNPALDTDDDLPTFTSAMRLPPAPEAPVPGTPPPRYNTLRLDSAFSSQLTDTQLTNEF
Procedure: The IC50 values of the example compounds given above were determined in the Ussing Chamber assay.
Ussing Chamber: Mouse kidney M-1 cells were cultivated in DMEM containing 5% FCS and 5 μM dexamethasone for 10 to 12 days on polyester transwell filters. Filters were inserted into a teflon-coated well-plate which fit into the ussing chamber system. Prior to measurement the medium of M-1 cells was replaced with Caco-2 transport buffer (Invitrogen, Germany). During measurements, the Ussing chamber temperature was kept at 37° C. Short circuit currents (I_sc) were measured in the voltage-clamp mode with the software package Lab View for data acquisition and analysis. The transepithelial electrical resistance (TEER) was determined by the application of voltage steps of ±5 mV every 5 sec. Compounds were administered at a final concentration of 3 μM or at increasing concentrations (1-3-10 μM) to the apical solution. At the end of each experiment the amiloride sensitive I_SC was measured by adding 3 μM amiloride to the apical compartment. Results are expressed as inhibition in percent of the amiloride effect or as IC50.

[2] = Permeability in CALU-3 cells; type: in vitro ADME; settings: human, CALU-3 monolayers, pH 7.4, 37° C., 10 μM compound; for Papp A→B at 90 min, 10 μM: apical-to-basal; for Papp B→A at 90 min, 10 μM: basal-to-apical
Procedure: Permeability in CALU-3 Cells:
Permeability measurements across polarized, confluent CALU-3 cell monolayers grown on permeable filter supports are used to provide information on the potential of a compound to pass the lung epithelium. Apparent permeability coefficients (Papp) of the compounds across the CALU-3 cell monolayers are measured (pH 7.4, 37° C.) in apical-to-basal (AB) and basal-to-apical (BA) transport direction.
CALU-3 cells (1-2×10^5 cells/1 cm^2 area) are seeded on filter inserts (Costar transwell polycarbonate filters, 0.4 μm pore size) and cultured (for 10-12 days DMEM) until tight monolayers are formed. Compounds of interest are dissolved in appropriate solvent (DMSO, 10 mM stock solution). Stock solutions are diluted with HTP-4 buffer (128.13 mM NaCl, 5.36 mM KCl, 1 mM MgSO4, 1.8 mM CaCl2, 4.17 mM NaHCO3, 1.19 mM Na2HPO4×7H2O, 0.41 mM NaH2PO4×H2O, 15 mM HEPES, 20 mM glucose, 0.25% BSA, pH 7.4) to prepare the transport solutions (10 μM compound, final DMSO<=0.5%). The transport solution (TL) is applied to the apical or basolateral donor side for measuring A-B or B-A permeability (3 filter replicates), respectively. The receiver side contains the same buffer as the donor side. After 30 min of accommodation, samples are collected at the start t0=0 min and at the end of the experiment tn=90 min from the donor and at 0, 30, 60, and 90 min also from the receiver chamber. Volume removed is […] by HTP-4 buffer. The compound concentration in the samples is measured by HPLC-MS/MS or scintillation counting. The permeability coefficient (Papp) and efflux ratio are calculated according to: Papp [cm/s]=(concentration receiver [nM]*volume receiver [mL]/time interval [sec])*(1/filter area)*(1/donor concentration [nM]).

Row | IC50 [1] [nM] | Papp A→B at 90 min, 10 μM [2] [nm/s] | Papp B→A at 90 min, 10 μM [2] [nm/s] | SMILES
1 | 1 | 2 | 2 | CCn1c(CNC(=O)c2nc(Cl)c(N)nc2N)[n+](CC)c2ccc(OCCNC(=O)CCN(C)C)cc21.Cl [Example 4.01]
2 | 19 | 3 | 2 | CC[n+]1c(CNC(=O)c2nc(Cl)c(N)nc2N)n(C[C@H](C)O)c2cc(N(C)C)c(C(=O)N3CCN(C(=O)Cc4ccccn4)CC3)cc21.O=C([O-])C(F)(F)F [Example 4.14]
3 | 34 | 3 | 3 | CCCCCOc1cc2c(cc1C(=O)N1CCN(C(=O)Cc3ccccn3)CC1)[n+](CC)c(CNC(=O)c1nc(Cl)c(N)nc1N)n2C[C@H](C)O.O=C([O-])C(F)(F)F [Example 4.15]
4 | 5 | 3 | 0.6 | CCOCCNC(=O)c1cc2c(cc1N1CCOCC1)n(CC)c(CNC(=O)c1nc(Cl)c(N)nc1N)[n+]2CC.[Cl-] [Example 5.01]
5 | 3 | 0.9 | 1 | CCn1c(CNC(=O)c2nc(Cl)c(N)nc2N)[n+](CC)c2cc(C(=O)N3CCOCC3)c(N3CCOCC3)cc21 [Example 5.02]
6 | 1 | 0.8 | 0.6 | CCn1c(CNC(=O)c2nc(Cl)c(N)nc2N)[n+](CC)c2ccc(OCCNC(=O)[C@H](C)NC)cc21.Cl.[Cl-] [Example 6.02]
7 | 1 | 3 | 3 | CCCCCCN1CCC(NC(=O)c2cc3c(cc2F)n(CC)c(CNC(=O)c2nc(Cl)c(N)nc2N)[n+]3CC)CC1.O=CO.O=C[O-] [Example 10.01]
